Values joined by “and” are separate entries in the source; they are usually repeats but may differ in a detail not shown here. Identical values can stand only once.
Legend:
[1] = MP-catalyzed peroxynitrite decomposition monitored at 302 nm; assay type: biochemical; details: 100 μM peroxynitrite
Procedure: Peroxynitrite (100 μM) was added to rapidly stirred cuvettes at 37° C. containing the indicated concentrations of MPs in 0.1 M potassium phosphate, pH 7.4. Ascorbate was added to 150 μM where indicated. Peroxynitrite decomposition was monitored at 302 nm using a Hewlett-Packard diode-array spectrophotometer. Apparent rates (kapparents^−1, average of n=3) were plotted versus MP concentration to determine rate constants in M^−1s^−1.
Reactions contained the indicated concentration of FeTCPPin 1.4 ml of 0.1 M potassium phosphate, pH 7.4 in the absence or presence to 150 μM ascorbic acid. Peroxynitrite (100 μM) was added to rapidly stirred cuvettes at 37° C. and the decay of peroxynitrite was monitored continuously at 302 nm. Decay data were fitted to the equation describing first order decay to obtain apparent decay rates (kapparent sec^−1). Apparent decay rates as a function of FeTCPP were fitted by linear regression and the rate constant was obtained slope of the line.
Peroxynitrite (100 μM) decomposition was determined at 302 nm using a Hewlett-Packard diode-array spectrophotometer fitted with a temperature-controlled cuvette chamber and a water-driven cuvette stirrer. Bolus additions of peroxynitrite were made to vigorously stirred cuvettes containing varying concentrations of MPs (see Table III) while data were collected at a rate of ten points/sec. […] Each reaction was repeated three times and only the first additions of peroxynitrite were averaged. Data were exported for fitting and plotting. Apparent rates of peroxynitrite decomposition were plotted as a function of metalloporphyrin concentration (as shown in FIG. 5) to determine concentration-independent rate constants at 37° C.
Rates of peroxynitrite (100 μM) decomposition were determined at different MP concentrations. Ascorbate was added to 150 μM where indicated. […] Apparent rate constants were plotted versus MP concentration (as in FIG. 5A,B) to determine true rate constants in M^−1s^−1±standard error.

[2] = Ascorbate oxidation by MPs monitored at 266 nm; assay type: biochemical; details: MP 10 μM, 50 μM ascorbate, 0.1 M potassium phosphate pH 7.4, ± standard error, n=3
Procedure: In order to test the hypothesis that Mn(II)- or Fe(II)-porphyrins would be capable of carrying out two-electron reductions of peroxynitrite and thereby decreasing rather than increasing its reactivity, attempts were made to pre-reduce these transition metal-containing MPs prior to addition of peroxynitrite.
Table V. Ascorbate oxidation by MPs. MPs (10 μM) were added to stirred cuvettes containing 0.1 M potassium phosphate, pH 7.4 and 50 μM ascorbate. Ascorbate oxidation was monitored at 266 nm (ηm=17,700 M^−1cm^−1). Oxidation rates (±standard errors) were determined by fitting the initial linear portion of each curve and averaging the rates (n=3).

cultured motor neurons = experiment: Protection of cultured motor neurons from growth factor withdrawal; assay type: cell-based
Procedure: Culture Motor neurons were prepared from embryonic day 15 (E15) rat spinal cords by a combination of metrizamide gradient centrifugation and immunopanning with the monoclonal antibody IgG192 (Chandler et al., J. Biol. Chem. 259:6882-6889, 1984) as previously described (Estevez et al., J Neurosci 18:923-931, 1998; Henderson C E, Bloch-Gallego E, Camu W (1995): Purification and culture of embryonic motorneurons. In Cohen J, Wilkin G (eds): Neural Cell Culture: A Practical Approach. Oxford, England: IRL Press, pp 69-81). Long-term cultures of motor neurons were performed as described by Pennica et al. (Pennica et al., Neuron 17:63-74, 1996). Briefly, motor neurons were plated at a density of 200 cells/cm2 on 35 mm dishes precoated with polyornithine-laminin in Neurobasal medium supplemented with B27 (Life Technologies, Grand Island, N.Y.), 2% horse serum, 0.5 mM L-glutamine, 25 μM 2-mercaptoethanol and 25 μM L-glutamate. Every 3-4 days ¾ of the culture medium was replaced by fresh medium lacking L-glutamate and containing sufficient quantities of BDNF or FeTCPP to supplement the 2 ml of medium in the dish. More than 94% of the cells were immunoreactive for the p75 low-affinity neurotrophic receptor (p75NTR) and Islet ½, which are markers for motor neurons. The experiments were repeated at least 2 times using the same lot of Neurobasal medium and B 27 supplement.
The number of motor neurons with neurites longer than 4 soma diameters present in parallel cultures treated with BDNF at a final concentration of 100 pg/ml 24 h after plating or culture media replacement was considered 100% motor neuron survival. FeTCPP was resuspended in complete Neurobasal medium at a 5 mM concentration. Dilutions were performed of the stock solution to add 20 μl per dish.
Rat motor neurons survive many days in culture when brain-derived neurotrophic factor (BDNF) is added to the culture media. Because motor neurons are the cells that preferentially die in ALS, primary cultures of motor neurons represent the best non-animal model of ALS. Withdrawal of BDNF results in apoptotic death of >70% of motor neurons within 24 h. Cell death was correlated with expression of the neuronal form of nitric oxide synthase (nNOS) and the production of peroxynitrite, as evidenced by protein tyrosine nitration. When FeTCPP is added to the culture media in place of BDNF and motor neuron survival is assessed at 24 h, some protection is seen at concentrations as low as 0.01 μM (FIG. 10A). […] Additionally, a comparison of the effect of FETCPP and its tetra-methyl ester derivative, TMeO-FeTCPP, on motor neuron survival at 72 hr.

O=C(O)c1ccc(-c2c3nc(c(-c4ccc(C(=O)O)cc4)c4ccc([n-]4)c(-c4ccc(C(=O)O)cc4)c4nc(c(-c5ccc(C(=O)O)cc5)c5ccc2[n-]5)C=C4)C=C3)cc1.[Fe+2] [FeTCPP, Iron (III) meso 5,10,15,20-tetrakis-(4-carboxy-phenyl) porphyrin]
Rate Constants for MP-Catalyzed Decomposition of Peroxynitrite (pH 7.4, 37° C.) ([1]; absence of added reductants): 1.6×10^6 M^−1s^−1 and 2.9 × 10^6 M^−1s^−1 ± 0.4 M^−1s^−1 | Rate of Ascorbate Oxidation [2]: 5.8 µM/min | survival of cultured motor neurons deprived of growth factors (cultured motor neurons): prolong survival of cultured motor neurons | long-term motor neuron survival compared with BDNF (cultured motor neurons; 0.1 μM and 1.0 μM): as effective as BDNF | maximal cell survival (cultured motor neurons; 0.1 μM, 24 h, in place of BDNF, 100% = BDNF 100 pg/ml): 90% | cell survival (cultured motor neurons; 100 μM, 24 h, in place of BDNF): 90% | dose-response for survival of motor neurons at 72 h (cultured motor neurons; 72 h): virtually identical to the 24 h survival results | lowest concentration at which some protection is seen (cultured motor neurons; added in place of BDNF, survival at 24 h): 0.01 µM | cell survival at day 16 (cultured motor neurons; lower dose (0.1 μM), long-term culture): 90% | toxicity to motor neurons (cultured motor neurons; relatively high concentrations, 100 μM): not toxic

C[n+]1ccc(-c2c3nc(c(-c4cc[n+](C)cc4)c4ccc([n-]4)c(-c4cc[n+](C)cc4)c4nc(c(-c5cc[n+](C)cc5)c5ccc2[n-]5)C=C4)C=C3)cc1.[Cl-].[Cl-].[Cl-].[Cl-].[Cl-].[Mn+3] [MnTMPyP, Manganese (III) meso-tetra-(N-methyl-4-pyridyl)-porphine chloride]
Rate Constants for MP-Catalyzed Decomposition of Peroxynitrite (pH 7.4, 37° C.) ([1]; plus ascorbate 150 μM): 1.8 × 10^6 ± 0.3 M^−1s^−1 | Rate of Ascorbate Oxidation [2]: 6.77 ± 0.33 µM/min

Reference: patent publication US6372727B1, “Metalloporphyrin treatment of neurologic disease” (UAB Research Foundation, priority 1999, dated 2002)
